According to ChEMBL document CHEMBL1201862, “PubChem BioAssay data set” (2004):
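These data come from cells grown in 96-well plates and exposed to compound for 48 hours at five concentrations. GI50 marks 50% less growth.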 Activity calls are given as the source filed them. Rule as the data show it: active = GI50 up to about 1.1 µM and inactive = higher.

Key:
Assay in all cases: inhibition of tumour cell growth, NCI panel, 48 h
[1] = test system: U-251
[2] = test system: UACC-257
[3] = test system: NCI/ADR-RES
[4] = test system: SNB-19
[5] = test system: UO-31
[6] = test system: SK-MEL-2
[7] = test system: MOLT-4
[8] = test system: Hs-578T
[9] = test system: A549
[10] = test system: HCT-116
[11] = test system: NCI-H23
[12] = test system: SN12C
[13] = test system: OVCAR-3
[14] = test system: EKVX
[15] = test system: UACC-62
[16] = test system: HCT-15
[17] = test system: SF-268
[18] = test system: NCI-H226
[19] = test system: KM12
[20] = test system: HCC 2998

| Compound | GI50 [1] | GI50 [2] | GI50 [3] | GI50 [4] | GI50 [5] | GI50 [6] | GI50 [7] | GI50 [8] | GI50 [9] | GI50 [10] | GI50 [11] | GI50 [12] | GI50 [13] | GI50 [14] | GI50 [15] | GI50 [16] | GI50 [17] | GI50 [18] | GI50 [19] | GI50 [20] |
| --- | --- | --- | --- | --- | --- | --- | --- | --- | --- | --- | --- | --- | --- | --- | --- | --- | --- | --- | --- | --- |
| CC(C)C(/N=C/c1ccccc1O)C(=O)O (stereo not given) | > 100 µM (inactive) | > 100 µM (inactive) | > 100 µM (inactive) | > 100 µM (inactive) | > 100 µM (inactive) | 20.6 µM (inactive) | > 100 µM (inactive) | 59.2 µM (inactive) | > 100 µM (inactive) | > 100 µM (inactive) | > 100 µM (inactive) | > 100 µM (inactive) | > 100 µM (inactive) | > 100 µM (inactive) | > 100 µM (inactive) | > 100 µM | > 100 µM (inactive) | > 100 µM (inactive) | > 100 µM (inactive) |  |
| CCOC(=O)/C(=C\Nc1c(C)n(C)n(-c2ccccc2)c1=O)C(=O)c1ccccc1 | > 100 µM (inactive) | > 100 µM (inactive) |  | > 100 µM (inactive) | > 100 µM (inactive) | > 100 µM (inactive) | > 100 µM (inactive) | > 100 µM (inactive) | > 100 µM (inactive) | > 100 µM (inactive) | > 100 µM (inactive) | > 100 µM (inactive) | > 100 µM (inactive) | > 100 µM (inactive) | > 100 µM (inactive) | > 100 µM | > 100 µM (inactive) | > 100 µM (inactive) | 0.033 µM (active) | > 100 µM (inactive) |
| COc1cc(/C=C/C(C)=O)ccc1OP(=O)(O)O | > 100 µM (inactive) | > 100 µM (inactive) |  | > 100 µM (inactive) | > 100 µM (inactive) | > 100 µM (inactive) | > 100 µM (inactive) | > 100 µM (inactive) | > 100 µM (inactive) | > 100 µM (inactive) | > 100 µM (inactive) | > 100 µM (inactive) | > 100 µM (inactive) | > 100 µM (inactive) | > 100 µM (inactive) | > 100 µM | > 100 µM (inactive) | > 100 µM (inactive) | > 100 µM (inactive) | > 100 µM (inactive) |
| CNC(=O)C1OC(n2cnc3c(NCc4cccc(I)c4)nc(Cl)nc32)C(O)C1O (stereo not given) | 14.8 µM (inactive) | 11.4 µM (inactive) | 11.7 µM (inactive) | 12.4 µM (inactive) | 11.9 µM (inactive) | 14.7 µM (inactive) | 14.2 µM (inactive) | 1.55 µM (inactive) |  | 15.6 µM (inactive) | 12.7 µM (inactive) | 16.6 µM (inactive) | 13 µM (inactive) | 13.5 µM (inactive) | 10.1 µM (inactive) | 1.06 µM | 11.4 µM (inactive) | 7.69 µM (inactive) | 12 µM (inactive) |  |
| C[N+](C)(C)Cc1c(CC#N)[nH]c2ccccc12 | > 100 µM (inactive) | > 100 µM (inactive) |  | > 100 µM (inactive) | 76.7 µM (inactive) | > 100 µM (inactive) | 24.5 µM (inactive) |  | > 100 µM (inactive) | > 100 µM (inactive) | > 100 µM (inactive) | > 100 µM (inactive) | > 100 µM (inactive) | > 100 µM (inactive) | > 100 µM (inactive) | > 100 µM | > 100 µM (inactive) | > 100 µM (inactive) | > 100 µM (inactive) | > 100 µM (inactive) |
| CCOc1cc(C(c2c(O)c3ccccc3oc2=O)c2c(O)c3ccccc3oc2=O)ccc1OC | 15.8 µM (inactive) | 16.4 µM (inactive) | 27.4 µM (inactive) | 23.8 µM (inactive) | 22.8 µM (inactive) | 20.6 µM (inactive) | 35.9 µM (inactive) | 26.8 µM (inactive) | 38.6 µM (inactive) | 19.5 µM (inactive) | 23.4 µM (inactive) | 18.8 µM (inactive) | 16.3 µM (inactive) | 21.3 µM (inactive) | 18.5 µM (inactive) | 21.3 µM | 18.9 µM (inactive) | 23.3 µM (inactive) | 18.2 µM (inactive) |  |
| O=C(Cn1c2c(c3ccccc31)CCCC2)N1CCCC1 |  | > 100 µM (inactive) | 96.4 µM (inactive) | > 100 µM (inactive) | 38.4 µM (inactive) | > 100 µM (inactive) |  | 22.8 µM (inactive) | > 100 µM (inactive) | 63.1 µM (inactive) | > 100 µM (inactive) | > 100 µM (inactive) | 83.9 µM (inactive) | > 100 µM (inactive) | 78.5 µM (inactive) | 80.7 µM |  |  |  | > 100 µM (inactive) |
| Nc1cc2c(nnn2C2OC(COCc3ccccc3)C(OCc3ccccc3)C2OCc2ccccc2)c(=O)[nH]1 (stereo not given) | 9.86 µM (inactive) | 14.9 µM (inactive) | > 100 µM (inactive) | 22.8 µM (inactive) | 58.1 µM (inactive) | 10.5 µM (inactive) | 7.85 µM (inactive) | 97.1 µM (inactive) | 13.5 µM (inactive) | 10.6 µM (inactive) | 19.5 µM (inactive) | 9.59 µM (inactive) | 18.7 µM (inactive) | 6.15 µM (inactive) | 14.9 µM (inactive) | 40.3 µM | 29.4 µM (inactive) | 15.5 µM (inactive) | 13 µM (inactive) |  |
| NC1=C(Br)C(=O)c2ncccc2C1=O | 0.177 µM (active) | 0.483 µM (active) |  | 1.25 µM (inactive) | 0.316 µM (active) | 0.346 µM (active) | 1.63 µM (inactive) |  | 0.855 µM (active) | 0.22 µM (active) | 0.156 µM (active) | 0.815 µM (active) | 1.09 µM (active) | 1.61 µM (inactive) | 0.232 µM (active) | 0.352 µM | 0.42 µM (active) | 1.69 µM (inactive) | 1.12 µM (active) | 1.11 µM (active) |
| Cn1c(-c2c(C3=CC(=O)N(c4ccccc4)C3=O)c3ccccc3n2C)cc2ccccc21 | > 100 µM (inactive) | > 100 µM (inactive) | > 100 µM (inactive) | > 100 µM (inactive) | > 100 µM (inactive) | > 100 µM (inactive) | 58.7 µM (inactive) |  | > 100 µM (inactive) | > 100 µM (inactive) | > 100 µM (inactive) | > 100 µM (inactive) | > 100 µM (inactive) | 4.51 µM (inactive) | > 100 µM (inactive) | > 100 µM |  | > 100 µM (inactive) | 21.8 µM (inactive) | > 100 µM (inactive) |
| CCCCCCCC1(N=[N+]=[N-])C(=O)Nc2ccccc2C1=O (stereo not given) | 15.1 µM (inactive) | 21 µM (inactive) | 18.9 µM (inactive) | 17.5 µM (inactive) | 12.7 µM (inactive) | 16.8 µM (inactive) | 10.4 µM (inactive) | 17.5 µM (inactive) | 14.8 µM (inactive) | 17.3 µM (inactive) | 18.2 µM (inactive) | 18.7 µM (inactive) | 16.1 µM (inactive) |  | 11.3 µM (inactive) | 21.9 µM | 15.6 µM (inactive) |  | 22.5 µM (inactive) | 20.6 µM (inactive) |
| COc1ccc(/C(Cl)=C(\C=N/O)c2ccc(OC)c(OC)c2)cc1OC | > 100 µM (inactive) | > 100 µM (inactive) |  | > 100 µM (inactive) | > 100 µM (inactive) | > 100 µM (inactive) | > 100 µM (inactive) |  | > 100 µM (inactive) | > 100 µM (inactive) | > 100 µM (inactive) | > 100 µM (inactive) | > 100 µM (inactive) | > 100 µM (inactive) | > 100 µM (inactive) | 82 µM | > 100 µM (inactive) | > 100 µM (inactive) | > 100 µM (inactive) | > 100 µM (inactive) |
| C[C@@]1(O)C2CC3CC1(c1ccccc1)CC(/C3=N/O)/C2=N\O (stereo not given in full) | > 100 µM (inactive) | > 100 µM (inactive) | > 100 µM (inactive) | > 100 µM (inactive) | > 100 µM (inactive) | > 100 µM (inactive) | > 100 µM (inactive) |  | > 100 µM (inactive) | > 100 µM (inactive) | > 100 µM (inactive) | > 100 µM (inactive) | > 100 µM (inactive) | > 100 µM (inactive) | > 100 µM (inactive) | > 100 µM | > 100 µM (inactive) | > 100 µM (inactive) | > 100 µM (inactive) | > 100 µM (inactive) |
| c1ccc(CN2CCC(CNc3ncnc4ccccc34)C2)cc1 (stereo not given) | 76.9 µM (inactive) |  | 61.9 µM (inactive) | > 100 µM (inactive) | 63.1 µM (inactive) | 38.6 µM (inactive) | 34.4 µM (inactive) | 58.5 µM (inactive) | > 100 µM (inactive) | 40.5 µM (inactive) | 40.3 µM (inactive) | 98.6 µM (inactive) | > 100 µM (inactive) | 25.1 µM (inactive) | > 100 µM (inactive) | > 100 µM | 51.5 µM (inactive) | 76.9 µM (inactive) | > 100 µM (inactive) |  |
| FC1(F)SC2CCCCCCCCCCC2C1(F)F (stereo not given) | 28.5 µM (inactive) | 20.5 µM (inactive) | 63.4 µM (inactive) | > 100 µM (inactive) | 78.2 µM (inactive) | 18.2 µM (inactive) | 28.2 µM (inactive) | 36.1 µM (inactive) | 35 µM (inactive) | 18.4 µM (inactive) | 23.8 µM (inactive) |  | 18.5 µM (inactive) | 35.5 µM (inactive) | 33.9 µM (inactive) | 42.5 µM | 29.2 µM (inactive) | 33.3 µM (inactive) |  |  |
| CN(Cc1cnc2nc(N)nc(N)c2n1)c1ccc(C(=O)NC23CC4CC(CC(C4)C2)C3)cc1 | 12 µM (inactive) | 10.9 µM (inactive) | 42.8 µM (inactive) | 6.52 µM (inactive) | 11.8 µM (inactive) | 11.5 µM (inactive) | 6.68 µM (inactive) | 12.9 µM (inactive) |  | 4.01 µM (inactive) | 10.2 µM (inactive) | 20.4 µM (inactive) | 16.9 µM (inactive) | 13.2 µM (inactive) | 3.66 µM (inactive) | 4.71 µM | 5.55 µM (inactive) | 13.1 µM (inactive) | 12.3 µM (inactive) |  |
